Experiments:
CCKB receptor = biological target: T1, CCKB receptor (Mus musculus, UniProt P56481); assay: CCKB receptor radioligand binding assay in mouse cortical membranes; conditions: [125I]-CCK8(S) 200 pM, 150 min at 21±3°, read-out: CCKB pKi (converted)
T1 construct: The whole brains from male mice (CD1 22-25 g; Charles River) were removed; from tissue; host or cells: cerebral cortex membranes of male CD1 mice
T1 sequence (P56481 1-453): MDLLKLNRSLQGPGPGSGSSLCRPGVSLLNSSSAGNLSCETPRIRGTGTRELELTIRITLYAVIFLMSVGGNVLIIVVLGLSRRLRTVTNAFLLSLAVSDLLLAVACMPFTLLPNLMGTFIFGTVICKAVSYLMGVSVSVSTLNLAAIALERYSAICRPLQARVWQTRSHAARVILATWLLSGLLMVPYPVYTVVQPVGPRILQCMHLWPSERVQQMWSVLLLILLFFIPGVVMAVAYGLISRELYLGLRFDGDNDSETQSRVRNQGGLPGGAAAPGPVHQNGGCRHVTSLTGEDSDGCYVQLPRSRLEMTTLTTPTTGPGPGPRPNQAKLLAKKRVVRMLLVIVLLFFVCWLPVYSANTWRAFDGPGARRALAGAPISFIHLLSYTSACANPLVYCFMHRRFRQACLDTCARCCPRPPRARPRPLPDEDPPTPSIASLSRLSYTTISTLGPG
Method in brief: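 Bound radioactivity was gamma-counted after rapid GF/B filtration and cold 50 mM Tris-HCl (pH 7.4) washes. The tissue was cerebral cortex from male CD1 mice, prepared as twice-centrifuged membranes in pH 7.2 HEPES/NaCl/KCl/MgCl2/EDTA buffer with bacitracin at 20 mg/ml original wet weight.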

gastrin receptor = biological target: T2, gastrin receptor (Rattus norvegicus, UniProt P30553); assay: gastrin antagonist activity in immature rat stomach assay (pentagastrin dose-response, acid secretion); conditions: isolated immature rat stomach, cumulative pentagastrin dose-response curves, read-out: Gastrin pKb (converted)
T2 construct: The stomach was excised and flushed with ca. 1 ml of unbuffered physiological saline solution; from tissue; host or cells: isolated whole stomach of immature rats (ca. 21 days old)
T2 sequence (P30553 1-452): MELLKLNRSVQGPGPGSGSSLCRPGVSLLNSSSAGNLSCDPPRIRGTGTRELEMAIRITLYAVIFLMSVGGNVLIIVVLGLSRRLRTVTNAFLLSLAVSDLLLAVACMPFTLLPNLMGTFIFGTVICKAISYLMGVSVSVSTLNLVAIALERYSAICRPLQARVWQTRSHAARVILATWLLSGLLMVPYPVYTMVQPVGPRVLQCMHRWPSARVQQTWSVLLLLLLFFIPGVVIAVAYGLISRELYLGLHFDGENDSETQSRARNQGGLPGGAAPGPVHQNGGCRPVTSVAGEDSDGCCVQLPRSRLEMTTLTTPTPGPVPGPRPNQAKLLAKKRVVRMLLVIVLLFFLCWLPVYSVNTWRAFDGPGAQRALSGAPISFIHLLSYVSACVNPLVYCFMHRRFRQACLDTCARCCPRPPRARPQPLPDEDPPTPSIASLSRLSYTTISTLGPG
Method in brief: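 Isolated, lumen-perfused stomach from immature rats (33-50 g, ca. 21 days) in a 37° organ bath with 3×10^−8 M 5-methylfurmethide, gassed 95% O2/5% CO2. Compound added serosally after 120 min stabilisation; cumulative pentagastrin dose-response curves begun 60 min later, acid secretion followed by perfusate pH.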

Compound | Ki (CCKB receptor) [nM] | Kb (gastrin receptor) [nM]
O=C(O)c1cccc(NC(=O)c2nc(-c3cccnc3)[nH]c2CCC23CC4CC(CC(C4)C2)C3)c1 [Example 177, 3-{[5-(2-Adamantan-1-yl-ethyl)-2-pyridine-3-yl-1H-imidazole-4-carbonyl]-amino}-benzoic Acid] | 603 | 151
Cc1ccccc1-c1nc(C(=O)Nc2cccc(C(=O)O)c2)c(CCC23CC4CC(CC(C4)C2)C3)n1C [Example 73, 3-{[5-(2-Adamantan-1-yl-ethyl)-1-methyl-2-o-tolyl-1H-imidazole-4-carbonyl]-amino}-benzoic Acid] | 417 | 6.61
O=C(O)c1cccc(NC(=O)c2nc(C3CCCCC3)[nH]c2CCC2CCCCC2)c1 [Example 168, 3-{[2-Cyclohexyl-5-(2-cyclohexyl-ethyl)-1H-imidazole-4-carbonyl]-amino}-benzoic Acid] | 245 | 64.6
Cc1ccccc1-c1nc(C(=O)Nc2cccc(C(=O)O)c2)c(CC2CCCCCC2)[nH]1 [Example 165, 3-[(5-Cycloheptylmethyl-2-o-tolyl-1H-imidazole-4-carbonyl)-amino]-benzoic Acid] | 1820 | 123
CCCC(CCC)c1nc(C(=O)Nc2cccc(C(=O)O)c2)c(CCC23CC4CC(CC(C4)C2)C3)[nH]1 [Example 125, 3-{[5-(2-Adamantan-1-yl-ethyl)-2-(1-propyl-butyl)-1H-imidazole-4-carbonyl]-amino}-benzoic Acid] | 105 | 2.29
O=C(O)c1cccc(NC(=O)c2nc(-c3ccc(F)cc3)[nH]c2CCC23CC4CC(CC(C4)C2)C3)c1 [Example 54, 3-{[5-(2-Adamantan-1-yl-ethyl)-2-(4-fluoro-phenyl)-1H-imidazole-4-carbonyl]-amino}-benzoic Acid] | 309 | 813
Cc1ccc(NC(=O)c2nc(-c3ccc(F)cc3F)[nH]c2CCC23CC4CC(CC(C4)C2)C3)cc1C(=O)O [Example 152, 5-{[5-(2-Adamantan-1-yl-ethyl)-2-(2,4-difluoro-phenyl)-1H-imidazole-4-carbonyl]-amino}-2-methyl-benzoic Acid] | 10.5 | 11.5
O=C(O)c1cccc(NC(=O)c2nc(-c3cccc(O)c3)[nH]c2CCC23CC4CC(CC(C4)C2)C3)c1 [Example 62, 3-{[5-(2-Adamantan-1-yl-ethyl)-2-(3-hydroxy-phenyl)-1H-imidazole-4-carbonyl]-amino}-benzoic Acid] | 389 | 1200
CN(C)c1cccc(-c2nc(C(=O)Nc3cccc(C(=O)O)c3)c(CCC34CC5CC(CC(C5)C3)C4)[nH]2)c1 [Example 71, 3-{[5-(2-Adamantan-1-yl-ethyl)-2-(3-dimethylamino-phenyl)-1H-imidazole-4-carbonyl]-amino}-benzoic Acid] | 186 | 794
O=C(O)c1cccc(NC(=O)c2nc(-c3ccccc3C(F)(F)F)[nH]c2CCC2CCCCCC2)c1 [Example 40, 3-{[5-(2-Cycloheptyl-ethyl)-2-(2-trifluoromethyl-phenyl)-1H-imidazole-4-carbonyl]-amino}-benzoic Acid] | 933 | 204
Cc1ccc(NC(=O)c2nc(C3CCCCC3)[nH]c2CCC2CCCCCC2)cc1C(=O)O [Example 167, 5-{[5-(2-Cycloheptyl-ethyl)-2-cyclohexyl-1H-imidazole-4-carbonyl]-amino}-2-methyl-benzoic Acid] | 28.2 | 13.8
O=C(O)c1cc(NC(=O)c2cc(-c3ccc4ccccc4c3)[nH]c2CC23CC4CC(CC(C4)C2)C3)cc(C(=O)O)c1 [Example 4, 5-[(2-Adamantan-1-ylmethyl-5-naphthalen-2-yl-1H-pyrrole-3-carbonyl)-amino]-isophthalic Acid] | 87.1 | 1620
CCCCC(CC)c1nc(C(=O)Nc2cccc(C(=O)O)c2)c(CCC23CC4CC(CC(C4)C2)C3)[nH]1 (centres unmarked) [Example 124, 3-{[5-(2-Adamantan-1-yl-ethyl)-2-(1-ethyl-pentyl)-1H-imidazole-4-carbonyl]-amino}-benzoic Acid] | 63.1 | 15.5

Further lines, results first:

Ki (CCKB receptor) [nM] | Kb (gastrin receptor) [nM] | Compound
67.6 | 11 | CC(C)(C)c1nc(C(=O)Nc2cccc(C(=O)O)c2)c(CCC23CC4CC(CC(C4)C2)C3)[nH]1 [Example 80, 3-{[5-(2-Adamantan-1-yl-ethyl)-2-tert-butyl-1H-imidazole-4-carbonyl]-amino}-benzoic Acid]
2340 | 1550 | Cc1nc(C(=O)Nc2cccc(C(=O)O)c2)c(CCC23CC4CC(CC(C4)C2)C3)[nH]1 [Example 108, 3-{[5-(2-Adamantan-1-yl-ethyl)-2-methyl-1H-imidazole-4-carbonyl]-amino}-benzoic Acid]
46.8 | 87.1 | Cc1ccccc1-c1nc(C(=O)Nc2ccc(F)c(C(=O)O)c2)c(CCC23CC4CC(CC(C4)C2)C3)[nH]1 [Example 105, 5-{[5-(2-Adamantan-1-yl-ethyl)-2-o-tolyl-1H-imidazole-4-carbonyl]-amino}-2-fluoro-benzoic Acid]
56.2 | 100 | Cc1cccc(C)c1-c1nc(C(=O)Nc2cccc(C(=O)O)c2)c(CCC23CC4CC(CC(C4)C2)C3)[nH]1 [Example 65, 3-{[5-(2-Adamantan-1-yl-ethyl)-2-(2,6-dimethyl-phenyl)-1H-imidazole-4-carbonyl]-amino}-benzoic Acid]
42.7 | 8.13 | CC(Cc1[nH]c(C2CCCCC2)nc1C(=O)Nc1cccc(C(=O)O)c1)C12CC3CC(CC(C3)C1)C2 (racemic) [Example 132, (±)-3-{[5-(2-Adamantan-1-yl-propyl)-2-cyclohexyl-1H-imidazole-4-carbonyl]-amino}-benzoic Acid]
251 | 204 | CC12CC3CC(C)(C1)CC(CCc1[nH]c(C4CCCCC4)nc1C(=O)Nc1cccc(C(=O)O)c1)(C3)C2 [Example 174, 3-({2-Cyclohexyl-5-[2-(3,5-dimethyl-adamantan-1-yl)-ethyl]-1H-imidazole-4-carbonyl}-amino)-benzoic Acid]
4.9 | 57.5 | Cc1ccc(NC(=O)c2nc(-c3c(C)cccc3C)[nH]c2CCC23CC4CC(CC(C4)C2)C3)cc1C(=O)O [Example 153, 5-{[5-(2-Adamantan-1-yl-ethyl)-2-(2,6-dimethyl-phenyl)-1H-imidazole-4-carbonyl]-amino}-2-methyl-benzoic Acid]
129 | 42.7 | Cc1ccccc1-c1nc(C(=O)Nc2cccc(C(=O)O)c2C)c(CCC23CC4CC(CC(C4)C2)C3)[nH]1 [Example 104, 3-{[5-(2-Adamantan-1-yl-ethyl)-2-o-tolyl-1H-imidazole-4-carbonyl]-amino}-2-methyl-benzoic Acid]
1020 | 3020 | O=C(O)c1cccc(NC(=O)c2sc(C3CCCCC3)nc2CCC23CC4CC(CC(C4)C2)C3)c1 [Example 122, 3-{[4-(2-Adamantan-1-yl-ethyl)-2-cyclohexyl-thiazole-5-carbonyl]-amino}-benzoic Acid]
1.41 | 178 | CC(C(=O)O)c1cccc(NC(=O)c2nc(C3CCCCC3)[nH]c2CCC23CC4CC(CC(C4)C2)C3)c1 (racemic) [Example 255, (±)-2-(3-{[5-(2-Adamantan-1-yl-ethyl)-2-cyclohexyl-1H-imidazole-4-carbonyl]-amino}-phenyl)-propionic Acid]
55 | 64.6 | Cc1c(NC(=O)c2nc(C3CCCCC3)[nH]c2CCC23CC4CC(CC(C4)C2)C3)cccc1C(=O)O [Example 253, 3-{[5-(2-Adamantan-1-yl-ethyl)-2-cyclohexyl-1H-imidazole-4-carbonyl]-amino}-2-methyl-benzoic Acid]
186 | 20.9 | CC(C)c1nc(C(=O)Nc2cccc(C(=O)O)c2)c(CCC23CC4CC(CC(C4)C2)C3)[nH]1 [Example 78, 3-{[5-(2-Adamantan-1-yl-ethyl)-2-isopropyl-1H-imidazole-4-carbonyl]-amino}-benzoic Acid]
